Test results published in ChEMBL document CHEMBL1201862, “PubChem BioAssay data set” (2004).
Active and inactive are the calls of the source. No stated cut-off is given here; in the data, actives have a measured IC50 and inactives only a lower limit.

Legend:
Format in all cases: functional
[1] = target: T1, Sentrin-specific protease 7 (Homo sapiens, UniProt Q9BQF6);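 further: Luminescence-based dose-response confirmation of ultra-high-throughput screening hits, measuring inhibition of SENP7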
T1 sequence (Q9BQF6 whole entry): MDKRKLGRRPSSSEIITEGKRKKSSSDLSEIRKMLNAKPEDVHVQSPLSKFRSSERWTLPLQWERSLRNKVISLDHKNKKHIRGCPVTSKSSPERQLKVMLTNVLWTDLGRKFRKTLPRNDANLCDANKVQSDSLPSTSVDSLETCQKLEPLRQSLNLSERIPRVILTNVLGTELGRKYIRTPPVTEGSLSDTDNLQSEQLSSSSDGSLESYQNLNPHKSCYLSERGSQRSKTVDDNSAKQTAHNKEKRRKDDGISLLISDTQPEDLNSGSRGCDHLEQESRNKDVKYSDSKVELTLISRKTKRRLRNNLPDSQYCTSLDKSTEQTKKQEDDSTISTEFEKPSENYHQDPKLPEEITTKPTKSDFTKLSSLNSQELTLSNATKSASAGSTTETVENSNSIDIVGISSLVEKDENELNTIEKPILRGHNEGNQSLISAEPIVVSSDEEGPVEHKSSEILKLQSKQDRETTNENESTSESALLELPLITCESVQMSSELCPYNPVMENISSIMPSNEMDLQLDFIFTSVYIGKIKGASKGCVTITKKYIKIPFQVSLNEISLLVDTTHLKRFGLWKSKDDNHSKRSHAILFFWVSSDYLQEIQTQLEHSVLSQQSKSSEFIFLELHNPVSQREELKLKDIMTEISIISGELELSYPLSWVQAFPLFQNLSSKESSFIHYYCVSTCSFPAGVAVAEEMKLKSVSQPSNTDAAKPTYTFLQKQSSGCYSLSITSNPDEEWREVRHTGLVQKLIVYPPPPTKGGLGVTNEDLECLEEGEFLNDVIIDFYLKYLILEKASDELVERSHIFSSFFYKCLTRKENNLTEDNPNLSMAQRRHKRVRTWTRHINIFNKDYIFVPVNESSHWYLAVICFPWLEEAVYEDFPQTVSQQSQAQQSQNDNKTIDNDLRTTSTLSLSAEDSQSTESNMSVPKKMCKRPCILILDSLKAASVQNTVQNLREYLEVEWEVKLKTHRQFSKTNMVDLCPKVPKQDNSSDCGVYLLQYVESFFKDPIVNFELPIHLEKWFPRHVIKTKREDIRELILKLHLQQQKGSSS

[2] = target: T2, Sentrin-specific protease 8 (Homo sapiens, UniProt Q96LD8);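 further: luminescence read-out of SENP8 inhibition, dose-response confirmation following an ultra-high-throughput screen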
T2 sequence (Q96LD8 whole entry): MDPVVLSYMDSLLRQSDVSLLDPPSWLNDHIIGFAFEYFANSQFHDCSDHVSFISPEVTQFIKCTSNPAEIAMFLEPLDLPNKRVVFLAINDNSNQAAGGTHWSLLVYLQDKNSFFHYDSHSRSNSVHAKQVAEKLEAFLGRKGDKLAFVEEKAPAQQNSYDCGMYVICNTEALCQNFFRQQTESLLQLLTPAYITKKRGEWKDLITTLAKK

[3] = target: T3, Sentrin-specific protease 6 (Homo sapiens, UniProt Q9GZR1);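 further: Luminescence-based dose-response confirmatory assay of SENP6 inhibition, following up an ultra-high-throughput screen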
T3 sequence (Q9GZR1 whole entry): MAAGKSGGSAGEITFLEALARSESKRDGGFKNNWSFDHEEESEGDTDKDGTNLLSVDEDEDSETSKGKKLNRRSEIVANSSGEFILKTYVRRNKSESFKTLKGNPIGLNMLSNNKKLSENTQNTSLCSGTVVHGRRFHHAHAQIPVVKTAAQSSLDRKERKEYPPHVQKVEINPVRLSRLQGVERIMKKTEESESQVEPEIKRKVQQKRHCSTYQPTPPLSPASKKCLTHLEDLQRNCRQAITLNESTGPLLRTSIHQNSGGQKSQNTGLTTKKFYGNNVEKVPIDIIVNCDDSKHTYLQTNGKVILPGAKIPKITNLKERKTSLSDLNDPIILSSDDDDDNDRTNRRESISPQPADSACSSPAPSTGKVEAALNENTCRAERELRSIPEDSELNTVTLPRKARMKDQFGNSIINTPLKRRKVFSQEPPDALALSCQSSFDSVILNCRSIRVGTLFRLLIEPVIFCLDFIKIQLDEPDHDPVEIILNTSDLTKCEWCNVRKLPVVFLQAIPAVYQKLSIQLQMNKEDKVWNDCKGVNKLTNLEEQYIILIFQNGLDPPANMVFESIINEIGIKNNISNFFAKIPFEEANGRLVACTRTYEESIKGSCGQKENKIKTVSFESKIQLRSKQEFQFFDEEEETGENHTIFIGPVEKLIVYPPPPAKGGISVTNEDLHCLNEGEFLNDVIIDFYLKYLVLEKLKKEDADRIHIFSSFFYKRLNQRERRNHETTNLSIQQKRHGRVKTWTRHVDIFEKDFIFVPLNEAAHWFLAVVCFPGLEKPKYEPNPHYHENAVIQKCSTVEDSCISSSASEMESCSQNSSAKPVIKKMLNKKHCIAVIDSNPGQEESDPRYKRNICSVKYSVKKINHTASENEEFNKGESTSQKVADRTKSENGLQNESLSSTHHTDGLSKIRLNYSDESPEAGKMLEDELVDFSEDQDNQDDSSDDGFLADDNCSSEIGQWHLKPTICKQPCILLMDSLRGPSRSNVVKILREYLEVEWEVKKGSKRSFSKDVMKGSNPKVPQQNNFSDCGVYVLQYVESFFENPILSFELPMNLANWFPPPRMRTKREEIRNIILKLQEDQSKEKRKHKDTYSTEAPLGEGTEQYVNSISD

Caspase-3 = target: T4, Caspase-3 (Homo sapiens, UniProt P42574);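 further: Dose-response selectivity test against caspase-3 for candidate inhibitors of sentrin-specific proteases (SENPs)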
T4 sequence (P42574 whole entry): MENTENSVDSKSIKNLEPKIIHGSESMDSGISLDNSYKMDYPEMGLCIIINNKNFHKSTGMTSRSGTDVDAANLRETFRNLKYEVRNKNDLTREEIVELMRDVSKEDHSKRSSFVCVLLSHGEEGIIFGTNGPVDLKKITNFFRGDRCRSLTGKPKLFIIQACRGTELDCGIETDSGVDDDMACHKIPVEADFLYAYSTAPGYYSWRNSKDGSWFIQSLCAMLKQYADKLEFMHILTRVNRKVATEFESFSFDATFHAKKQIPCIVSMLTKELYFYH

SMILES | IC50 [1] | IC50 [2] | IC50 [3] | IC50 (Caspase-3)
O=[N+]([O-])c1ccc(O)c(C2=NNC(c3ccccc3F)C2)c1 (stereo not drawn) | 41.6 µM (active) | 54.5 µM (active) | 43.5 µM (active) | 68.6 µM (active)
Cc1oc2c(c1C(=O)N1CCC(C)CC1)C(=O)c1ccccc1C2=O | 40.6 µM (active) | 23.6 µM (active) | 13.7 µM (active) | 10.2 µM (active)
